Data as given in patent US20070031872A1, “A141S and G399S mutation in the Omi/HtrA2 protein in Parkinson's disease” (priority 2004, published 2007).
Peptide text beside a SMILES is read from it. * marks the point of attachment. Cbz = O=C(OCc1ccccc1)*

Columns and labels:
Assay type in all cases: cell-based
[1] = system: HEK293 cells which expressed the exon 7, i.e. the G1195A, mutation (G399S) of Omi/HtrA2; test: Cytotoxicity test (LDH release) using staurosporin; conditions: 0.5 μM staurosporin, 6 hours; G399S cells vs wild-type HEK293 cells; FIG. 7
Description: (§1) In order to analyze the pathogenetic relevance of the two mutations found in the Omi/HtrA2 gene, the cytotoxicity test was used to investigate whether cells which express the correspondingly genetically modified Omi/HtrA2 protein are more sensitive to cytotoxins, i.e. undergo apoptosis more frequently with corresponding exposure.
(§2) This test was carried out using the cytotoxicity detection kit (LDH) supplied by Roche. The measure of apoptosis used in this case is the lactate dehydrogenase (LDH) released from the cytosol of the apoptotic cells into the surrounding medium after contact with the toxins. This LDH in turn is determined via conversion of a tetrazolium salt into formazan, which can be measured through a change in color from yellow (tetrazolium salt) to red (formazan) using an ELISA reader at a wavelength of 490 nm. The absorption at 650 nm is measured as reference comparison. […]
(§3) In order to detect the total amount of LDH, which is related to the total number of cells per well, then 50 μl of 10% Triton X-100 solution were pipetted into each well in order to lyse the cells which were still alive. […] 100 μl of LDH assay medium were then put in each well to be measured of the 96-well plate and incubated at room temperature for 20 minutes.
(§4) After this incubation time had elapsed, the reaction was stopped by adding 50 μl of 1 N HCl (Sigma) and measured using the ELISA reader. […]

[2] = system: SH-SY5Y cells which stably express mutated (S141 or S399) Omi/HtrA2; test: Mitochondrion function test: mitochondrial membrane potential by JC-1 FACS analysis; conditions: 0.5 μM staurosporin, 4 hours, FIG. 9
Description: The mitochondrial membrane potential was measured by FACS analysis (flow cytometer) using JC-1, as marker of mitochondrial homeostasis in SH-SY5Y cells which stably express the wild-type or mutated (S141 or S399) Omi/HtrA2.
JC-1 is a green fluorescent dye which can be employed to measure the mitochondrial membrane potential. It has the property of diffusing through cellular membranes and is moreover in the form of a monomer which fluoresces green on excitation with a 488 nm laser. In intact mitochondria there is accumulation of the dye owing to the mitochondrial membrane potential, and thus JC-1 aggregates form. The aggregate now re-emits in a red fluorescent wavelength the excitation light and can thus be clearly distinguished both under a microscope and in a flow cytometer from the green fluorescent monomers. […]
In order to differentiate the cell population between green and red fluorescence and to make the adjustment in the flow cytometer, cells without JC-1, with JC-1 and cells with JC-1 treated with CCCP were used. […] It was thus possible after the staining readily to excite only the green fluorescence of the JC-1 monomers, owing to treatment with CCCP. After adjustment of the assay in the flow cytometer, the samples were then measured and evaluated. […]

[3] = system: HEK293 cells which expressed the exon 1, i.e. G421T, mutation (A141S) of Omi/HtrA2; test: Cytotoxicity test (LDH release) using MG132; conditions: 3.0 μM MG132, 24 hours; A141S cells vs wild-type HEK293 cells; FIG. 8
Description: as §1, §2, §3, §4

Structure (SMILES) | sensitivity to staurosporin relative to wild-type HEK293 cells (LDH release, proportion of dead cells) [1] | decline in the mitochondrial membrane potential (ΔΨm loss) compared with wild-type cells ([2]; Omi/HtrA2 S141 cells) | decline in the mitochondrial membrane potential (ΔΨm loss) compared with wild-type cells ([2]; Omi/HtrA2 S399 cells) | sensitivity to MG132 relative to wild-type HEK293 cells (LDH release, proportion of dead cells) [3]
CN[C@@H]1C[C@H]2O[C@@](C)([C@@H]1OC)n1c3ccccc3c3c4c(c5c6ccccc6n2c5c31)C(=O)NC4 [staurosporin] | more than five times more sensitive | distinct decline in the mitochondrial membrane potential | distinct decline in the mitochondrial membrane potential | –
CC(C)C[C@@H](C=O)NC(=O)[C@H](CC(C)C)NC(=O)[C@H](CC(C)C)NC(=O)OCc1ccccc1 [MG132] (Cbz-Leu-Leu-Leu-aldehyde) | – | – | – | approximately 1.4 times
